The target of series [1] is Mitogen-activated protein kinase kinase kinase 2 (Homo sapiens) (UniProt Q9Y2U5). As to conditions: Compound concentration 100.0 nM; call rule not given here.
Series [2] addresses 5-hydroxytryptamine receptor 3A (Homo sapiens) (UniProt P46098). Conditions: Compound concentration 10.0 uM.
Series [3] is filed under the species Rattus norvegicus. In words: Testosterone Eurofins-Panlabs radioligand binding assay. Also noted: ligand concentration 1.5 nM. Conditions: Compound concentration 10.0 uM.
The target of series [4] is B1 bradykinin receptor (Homo sapiens) (UniProt P46663). In words: Inhibition of Bradykinin B1 at 10 µM in the Eurofins-Panlabs radioligand binding assay (Eurofins_assay_212510). As to conditions: Compound concentration 10.0 uM.
Series [5] deals with Glucocorticoid receptor (Homo sapiens) (UniProt P04150). In words: Glucocorticoid Eurofins-Panlabs radioligand binding assay. As to conditions: Compound concentration 10.0 uM.
Sequence of Glucocorticoid receptor (Homo sapiens) (P04150 whole entry): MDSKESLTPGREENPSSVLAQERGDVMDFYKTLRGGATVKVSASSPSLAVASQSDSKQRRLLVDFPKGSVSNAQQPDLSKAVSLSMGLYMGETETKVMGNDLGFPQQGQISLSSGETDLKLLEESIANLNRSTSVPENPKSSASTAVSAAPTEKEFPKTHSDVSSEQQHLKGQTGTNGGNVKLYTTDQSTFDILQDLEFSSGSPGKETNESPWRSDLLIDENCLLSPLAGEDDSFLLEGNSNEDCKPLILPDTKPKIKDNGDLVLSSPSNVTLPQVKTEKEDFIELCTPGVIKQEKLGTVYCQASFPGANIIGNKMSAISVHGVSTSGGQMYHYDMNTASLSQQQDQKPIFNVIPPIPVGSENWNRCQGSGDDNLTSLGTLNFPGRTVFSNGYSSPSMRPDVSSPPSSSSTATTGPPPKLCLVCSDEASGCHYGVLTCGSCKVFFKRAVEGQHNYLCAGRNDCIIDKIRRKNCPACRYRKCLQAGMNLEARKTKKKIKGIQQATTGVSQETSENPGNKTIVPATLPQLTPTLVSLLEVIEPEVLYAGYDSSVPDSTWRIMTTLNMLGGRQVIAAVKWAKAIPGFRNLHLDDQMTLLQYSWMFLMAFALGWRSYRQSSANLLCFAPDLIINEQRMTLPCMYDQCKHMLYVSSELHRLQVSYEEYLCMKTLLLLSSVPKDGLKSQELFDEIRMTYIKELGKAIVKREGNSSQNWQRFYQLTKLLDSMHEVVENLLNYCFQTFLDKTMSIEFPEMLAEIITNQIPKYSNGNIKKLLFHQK
Series [6] has as its target Glutamate receptor ionotropic, kainate (Rattus norvegicus) (UniProt P22756+Q01812+P42260+P42264+Q63273). The series can be described thus: Inhibition of Glutamate, Kainate at 10 µM in the Eurofins-Panlabs radioligand binding assay (Eurofins_assay_232700). Conditions: Compound concentration 10.0 uM.
Series [7] deals with Acetylcholine receptor subunit alpha (Homo sapiens) (UniProt P02708). The series can be described thus: Inhibition of Nicotinic Acetylcholine D1, Bungarotoxin at 10 µM in the Eurofins-Panlabs radioligand binding assay (Eurofins_assay_258700). Conditions: Compound concentration 10.0 uM.
In series [8] the target is Platelet-activating factor receptor (Homo sapiens) (UniProt P25105). In words: Inhibition of Platelet Activating Factor (PAF) at 10 µM in the Eurofins-Panlabs radioligand binding assay (Eurofins_assay_265010). Conditions: Compound concentration 10.0 uM.
Series [9] has as its target Monoamine oxidase A (MAO-A) (Homo sapiens, UniProt P21397). In words: Inhibition of Monoamine Oxidase MAO-A at compound concentration of 10.0 uM in the Eurofins-Panlabs enzyme assay (Eurofins_assay_140010). Also noted: substrate with concentration 50 uM Kynuramine, incubation time 60 min, incubation temperature 37 C. Conditions: recombinant human MAO-A expressed in insect Hi5 cells, probe kynuramine, compound concentration 10 uM.

Series [10] deals with Phosphodiesterase 3 (Homo sapiens) (UniProt Q14432+Q13370). In words: Inhibition of Phosphodiesterase PDE3 at compound concentration of 10.0 uM in the Eurofins-Panlabs enzyme assay (Eurofins_assay_152000). More on the design: substrate with concentration 1.01 uM [3H] cAMP + cAMP, incubation time 20 min, incubation temperature 25 C. The format is protein assay. Conditions: Compound concentration 10.0 uM.

Series [11] addresses Alpha-2A adrenergic receptor (Homo sapiens) (UniProt P08913). In words: Adrenergic alpha2A Eurofins-Panlabs radioligand binding assay. More on the design: ligand concentration 1 nM, non-specific ligand with concentration 10 µM WB-4101, incubation time 60 min, incubation temperature 25 °C. Conditions: Compound concentration 10.0 uM.
For series [12], the species on record is Rattus norvegicus. In words: Inhibition of Glycine, Strychnine-Sensitive at 10 µM in the Eurofins-Panlabs radioligand binding assay (Eurofins_assay_239000). Conditions: Compound concentration 10.0 uM.
Series [13] deals with Melanocortin receptor 4 (Homo sapiens) (UniProt P32245). In words: Inhibition of Melanocortin MC4 at 10 µM in the Eurofins-Panlabs radioligand binding assay (Eurofins_assay_251350). Also noted: ligand concentration 0.02 nM. Conditions: Compound concentration 10.0 uM.
In series [14] the target is 5-hydroxytryptamine receptor 1B (Homo sapiens) (UniProt P28222). In words: Inhibition of Serotonin (5-Hydroxytryptamine) 5-HT1B at 10 µM in the Eurofins-Panlabs radioligand binding assay (Eurofins_assay_271200). Conditions: Compound concentration 10.0 uM.
Series [15] has as its target 5-hydroxytryptamine receptor 6 (Homo sapiens) (UniProt P50406). In words: Inhibition of Serotonin (5-Hydroxytryptamine) 5-HT6 at 10 µM in the Eurofins-Panlabs radioligand binding assay (Eurofins_assay_272200). Conditions: Compound concentration 10.0 uM.
Series [16] has as its target Histamine H3 receptor (Homo sapiens) (UniProt Q9Y5N1). In words: Histamine H3 Eurofins-Panlabs radioligand binding assay. As to conditions: Compound concentration 10.0 uM.
The species entered for series [17] is Rattus norvegicus. In words: Protein Serine/Threonine Kinase, PKC, Non-Selective Eurofins-Panlabs enzyme assay. Conditions: Compound concentration 10.0 uM.
The target in series [18] is Tyrosine 3-monooxygenase (Homo sapiens) (UniProt P07101). In words: Tyrosine Hydroxylase Eurofins-Panlabs enzyme assay. More on the design: substrate with concentration. Conditions: Rattus norvegicus; Compound concentration 10.0 uM.
Sequence of Tyrosine 3-monooxygenase (Homo sapiens) (P07101 whole entry): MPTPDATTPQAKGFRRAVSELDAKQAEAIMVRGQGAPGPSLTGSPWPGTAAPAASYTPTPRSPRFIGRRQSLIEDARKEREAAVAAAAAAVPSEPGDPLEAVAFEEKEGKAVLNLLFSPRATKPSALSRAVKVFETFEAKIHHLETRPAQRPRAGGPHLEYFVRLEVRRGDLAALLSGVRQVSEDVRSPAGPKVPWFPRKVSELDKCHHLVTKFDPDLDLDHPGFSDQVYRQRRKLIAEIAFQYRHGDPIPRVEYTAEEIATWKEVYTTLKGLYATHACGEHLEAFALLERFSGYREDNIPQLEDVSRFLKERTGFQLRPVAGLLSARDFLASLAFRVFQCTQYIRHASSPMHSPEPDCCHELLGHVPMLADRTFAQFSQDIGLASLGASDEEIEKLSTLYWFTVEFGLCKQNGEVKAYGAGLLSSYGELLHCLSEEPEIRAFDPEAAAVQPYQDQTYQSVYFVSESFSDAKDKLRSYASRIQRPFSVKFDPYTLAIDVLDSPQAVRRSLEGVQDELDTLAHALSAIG
In series [19] the target is Adrenomedullin receptor AM1; CALCRL/RAMP2 (Homo sapiens) (UniProt O60895+Q16602). The series can be described thus: Adrenomedullin AM1 Eurofins-Panlabs radioligand binding assay. In kind it is protein-complex assay. Conditions: Compound concentration 10.0 uM.
In series [20] the target is C-X-C chemokine receptor type 4 (Homo sapiens) (UniProt P61073). In words: Chemokine CXCR4 Eurofins-Panlabs radioligand binding assay. Also noted: ligand concentration 0.03 nM. As to conditions: Compound concentration 10.0 uM.
Sequence of C-X-C chemokine receptor type 4 (Homo sapiens) (P61073 whole entry): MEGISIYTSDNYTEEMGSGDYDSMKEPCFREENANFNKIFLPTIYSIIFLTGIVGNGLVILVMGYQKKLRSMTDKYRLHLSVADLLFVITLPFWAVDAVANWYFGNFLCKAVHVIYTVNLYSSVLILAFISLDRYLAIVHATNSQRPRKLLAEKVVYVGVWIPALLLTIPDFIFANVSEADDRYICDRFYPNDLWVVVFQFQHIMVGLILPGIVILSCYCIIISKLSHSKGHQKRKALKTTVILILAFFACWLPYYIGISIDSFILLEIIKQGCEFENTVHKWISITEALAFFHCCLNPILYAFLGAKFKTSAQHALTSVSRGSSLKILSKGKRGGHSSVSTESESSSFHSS
Series [21] is filed under the species Rattus norvegicus. In words: GABAA, Ro-15-1788, Hippocampus Eurofins-Panlabs radioligand binding assay. Conditions: Compound concentration 10.0 uM. More on the design: ligand concentration 1 nM.
In series [22] the target is Melanocyte-stimulating hormone receptor (Homo sapiens) (UniProt Q01726). The series can be described thus: Melanocortin MC1 Eurofins-Panlabs radioligand binding assay. As to conditions: Compound concentration 10.0 uM.
Series [23] has as its target Retinoic acid receptor RXR-alpha (Homo sapiens) (UniProt P19793). The series can be described thus: Retinoid X Receptor RXRalpha Eurofins-Panlabs radioligand binding assay. As to conditions: Compound concentration 10.0 uM.
Series [24] has as its target Vasopressin V1b receptor (Homo sapiens) (UniProt P47901). In words: Inhibition of Vasopressin V1B at 10 µM in the Eurofins-Panlabs radioligand binding assay (Eurofins_assay_287560). More on the design: ligand concentration 1 nM. Conditions: Compound concentration 10.0 uM.
Series [25] concerns the target Insulin receptor (Homo sapiens) (UniProt P06213). The series can be described thus: Protein Tyrosine Kinase, Insulin Receptor Eurofins-Panlabs enzyme assay. More on the design: substrate with concentration 10 µg/mL Histone H1, incubation time 60 min, incubation temperature 25 °C. Conditions: Compound concentration 10.0 uM.
For series [26], the target named is Glutamate NMDA receptor; GRIN1/GRIN2A (Homo sapiens) (UniProt Q05586+Q12879). In words: NMDA-NR1a/NR2a Eurofins-Panlabs radioligand binding assay. Conditions: Compound concentration 10.0 uM. The format is protein-complex assay.
A further series is filed under the species Homo sapiens. In words: Prostanoid, Thromboxane A2 (TP) Eurofins-Panlabs radioligand binding assay. Also noted: ligand concentration 5 nM, non-specific ligand with concentration 1 µM SQ-29548, incubation time 30 min, incubation temperature 25 °C. Conditions: Compound concentration 10.0 uM.
In series [27] the target is 5-hydroxytryptamine receptor 5A (Homo sapiens) (UniProt P47898). Conditions: Compound concentration 10.0 uM.
Sequence of 5-hydroxytryptamine receptor 5A (Homo sapiens) (P47898 whole entry): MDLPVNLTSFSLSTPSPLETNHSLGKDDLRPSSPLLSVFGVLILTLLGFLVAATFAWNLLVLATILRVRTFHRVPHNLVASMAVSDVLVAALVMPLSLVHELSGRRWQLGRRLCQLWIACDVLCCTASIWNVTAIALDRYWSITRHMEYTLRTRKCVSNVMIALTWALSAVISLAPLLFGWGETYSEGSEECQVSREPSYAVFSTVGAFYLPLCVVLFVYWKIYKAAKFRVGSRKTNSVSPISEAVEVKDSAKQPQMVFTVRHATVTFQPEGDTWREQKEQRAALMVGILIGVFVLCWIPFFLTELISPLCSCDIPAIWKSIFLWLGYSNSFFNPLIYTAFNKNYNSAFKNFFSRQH
Series [28] concerns the target Adenosine receptor A2a (Homo sapiens) (UniProt P29274). As to conditions: Compound concentration 10.0 uM.
Series [29] deals with Beta-1 adrenergic receptor (Homo sapiens) (UniProt P08588). Conditions: Compound concentration 10.0 uM.
Sequence of Beta-1 adrenergic receptor (Homo sapiens) (P08588 whole entry, looked up): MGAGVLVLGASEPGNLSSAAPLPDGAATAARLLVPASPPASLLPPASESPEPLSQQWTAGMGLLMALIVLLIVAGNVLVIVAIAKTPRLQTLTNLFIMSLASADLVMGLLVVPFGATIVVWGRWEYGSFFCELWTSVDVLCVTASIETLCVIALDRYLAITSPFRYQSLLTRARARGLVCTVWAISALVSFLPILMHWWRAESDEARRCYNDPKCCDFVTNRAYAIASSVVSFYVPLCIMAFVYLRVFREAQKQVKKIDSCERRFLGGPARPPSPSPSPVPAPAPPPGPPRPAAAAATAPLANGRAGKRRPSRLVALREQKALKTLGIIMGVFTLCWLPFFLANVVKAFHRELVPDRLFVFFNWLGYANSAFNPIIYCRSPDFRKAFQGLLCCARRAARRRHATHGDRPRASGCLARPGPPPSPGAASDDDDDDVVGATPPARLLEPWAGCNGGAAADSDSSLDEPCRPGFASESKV
In series [30] the target is Beta-2 adrenergic receptor (Homo sapiens) (UniProt P07550). As to conditions: Compound concentration 10.0 uM.
Sequence of Beta-2 adrenergic receptor (Homo sapiens) (P07550 whole entry, looked up): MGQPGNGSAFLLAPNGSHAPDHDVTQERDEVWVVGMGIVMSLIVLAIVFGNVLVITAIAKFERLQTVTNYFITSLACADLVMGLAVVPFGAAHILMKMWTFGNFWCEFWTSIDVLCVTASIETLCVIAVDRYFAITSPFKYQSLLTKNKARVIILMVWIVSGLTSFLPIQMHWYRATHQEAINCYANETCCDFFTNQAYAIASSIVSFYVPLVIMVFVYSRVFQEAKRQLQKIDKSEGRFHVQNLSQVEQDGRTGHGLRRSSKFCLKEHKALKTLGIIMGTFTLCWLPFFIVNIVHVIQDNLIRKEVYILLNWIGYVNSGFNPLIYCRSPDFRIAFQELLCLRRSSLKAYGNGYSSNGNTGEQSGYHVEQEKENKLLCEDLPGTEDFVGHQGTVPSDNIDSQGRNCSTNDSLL
Series [31] concerns the target Estrogen receptor (Homo sapiens) (UniProt P03372). Conditions: Compound concentration 10.0 uM.
Series [32] concerns the target Sodium-dependent noradrenaline transporter (Homo sapiens) (UniProt P23975). Conditions: Compound concentration 10.0 uM.
Series [33] concerns the target Sodium-dependent serotonin transporter (Homo sapiens) (UniProt P31645). As to conditions: Compound concentration 10.0 uM.
For series [34], the target named is GABA-A receptor; anion channel (Rattus norvegicus) (UniProt O09028+P15431+P18506+P18508+P19969+P20236+P23574+P23576+P28471+P28473+P30191+P62813+P63079+P63138+Q91ZM7+Q9ES14). As to conditions: Compound concentration 10.0 uM.

By inhibition is commonly meant the drop in the measured response relative to a control, in per cent.

Sequence of Mitogen-activated protein kinase kinase kinase 2 (Homo sapiens) (Q9Y2U5 whole entry): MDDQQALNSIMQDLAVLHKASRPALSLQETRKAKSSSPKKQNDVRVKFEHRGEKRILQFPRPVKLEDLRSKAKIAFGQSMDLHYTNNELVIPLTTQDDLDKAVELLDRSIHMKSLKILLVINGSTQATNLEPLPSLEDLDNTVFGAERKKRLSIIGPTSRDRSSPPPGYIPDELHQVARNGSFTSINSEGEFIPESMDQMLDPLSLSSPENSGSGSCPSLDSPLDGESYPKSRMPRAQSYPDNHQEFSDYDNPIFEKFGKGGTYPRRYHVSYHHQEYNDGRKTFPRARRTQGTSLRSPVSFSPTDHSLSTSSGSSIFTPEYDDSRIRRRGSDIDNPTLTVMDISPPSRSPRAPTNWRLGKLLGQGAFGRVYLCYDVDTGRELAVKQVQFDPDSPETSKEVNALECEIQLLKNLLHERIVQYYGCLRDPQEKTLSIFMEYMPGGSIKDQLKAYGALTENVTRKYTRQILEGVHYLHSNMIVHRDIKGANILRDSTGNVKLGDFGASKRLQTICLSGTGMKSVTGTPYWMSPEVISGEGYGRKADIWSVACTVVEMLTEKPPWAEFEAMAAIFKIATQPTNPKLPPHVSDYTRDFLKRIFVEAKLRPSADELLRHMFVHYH
Sequence of 5-hydroxytryptamine receptor 6 (Homo sapiens) (P50406 whole entry): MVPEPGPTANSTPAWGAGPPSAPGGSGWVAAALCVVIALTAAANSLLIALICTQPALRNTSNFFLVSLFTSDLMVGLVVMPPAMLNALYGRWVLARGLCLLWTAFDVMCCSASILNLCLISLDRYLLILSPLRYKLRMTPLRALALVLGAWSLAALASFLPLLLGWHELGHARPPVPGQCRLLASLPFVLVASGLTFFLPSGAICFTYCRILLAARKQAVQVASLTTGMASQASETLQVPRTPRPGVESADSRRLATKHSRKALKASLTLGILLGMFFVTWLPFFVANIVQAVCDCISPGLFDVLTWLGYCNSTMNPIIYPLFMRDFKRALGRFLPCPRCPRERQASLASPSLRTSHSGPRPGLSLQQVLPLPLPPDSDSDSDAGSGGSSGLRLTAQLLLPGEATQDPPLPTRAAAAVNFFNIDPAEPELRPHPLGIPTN
Sequence of 5-hydroxytryptamine receptor 3A (Homo sapiens) (P46098 whole entry): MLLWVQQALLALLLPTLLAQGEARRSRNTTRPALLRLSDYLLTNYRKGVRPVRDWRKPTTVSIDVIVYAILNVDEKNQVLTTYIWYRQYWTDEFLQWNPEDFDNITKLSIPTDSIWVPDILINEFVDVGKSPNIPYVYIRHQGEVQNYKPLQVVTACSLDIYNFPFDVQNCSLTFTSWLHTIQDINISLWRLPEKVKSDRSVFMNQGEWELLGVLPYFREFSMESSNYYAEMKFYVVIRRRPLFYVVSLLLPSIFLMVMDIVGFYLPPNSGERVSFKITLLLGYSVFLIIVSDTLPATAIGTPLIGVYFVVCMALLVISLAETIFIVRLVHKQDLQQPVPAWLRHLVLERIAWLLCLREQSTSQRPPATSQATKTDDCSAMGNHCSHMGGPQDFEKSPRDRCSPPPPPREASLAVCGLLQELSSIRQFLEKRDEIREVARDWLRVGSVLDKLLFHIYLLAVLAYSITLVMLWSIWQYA
Sequence of Monoamine oxidase A (MAO-A) (P21397 whole entry): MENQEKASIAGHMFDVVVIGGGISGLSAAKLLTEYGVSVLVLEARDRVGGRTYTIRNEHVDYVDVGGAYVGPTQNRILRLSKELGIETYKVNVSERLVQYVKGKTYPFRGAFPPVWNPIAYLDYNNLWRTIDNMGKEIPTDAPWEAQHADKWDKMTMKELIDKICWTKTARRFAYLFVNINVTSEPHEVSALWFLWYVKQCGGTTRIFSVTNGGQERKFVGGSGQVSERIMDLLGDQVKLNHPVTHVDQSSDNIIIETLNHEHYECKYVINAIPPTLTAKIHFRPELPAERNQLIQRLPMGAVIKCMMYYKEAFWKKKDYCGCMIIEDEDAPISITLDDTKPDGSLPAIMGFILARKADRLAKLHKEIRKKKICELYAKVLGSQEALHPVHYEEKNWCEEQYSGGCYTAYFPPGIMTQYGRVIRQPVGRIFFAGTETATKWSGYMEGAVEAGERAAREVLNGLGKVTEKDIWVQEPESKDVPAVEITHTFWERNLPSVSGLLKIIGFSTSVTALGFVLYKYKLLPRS

`CC(C)CC(=O)N1CCc2nc(-c3ccc(Br)cc3)nc(N(C)Cc3ccccc3)c2C1` [THPP-1-NC]: the residual activity in series [1] is 100%. For the same molecule, in [2], the inhibition is -4.38%.
`COCCOc1nc(-c2ccc(Cl)nc2)nc2c1CN(C(=O)c1ncn3ccccc13)CC2` [THPP-1]: the inhibition in the series listed under Rattus norvegicus [3] is 7%; in [4], 28%; in [5] it was -6%; in series [6], 9%; in [7] it was -3%; in series [8], -4%. In addition, the inhibition was 45% in series [10]; -3% in [11]; 15% in the series filed under Rattus norvegicus [12]; 8% in [13]; 7% in series [14]; 5% in series [15]. The inhibition was -1% in [16]; 12% in the series filed under Rattus norvegicus [17]; 4% in [18]; -6% in [19]; 4% in series [20]; 37% in the series listed under Rattus norvegicus [21]. Besides, the inhibition in series [22] was 23%; in series [23] it was -4%; in [24], 5%; in [25], -2%; in series [26] it was -7%; in the series filed under Homo sapiens, 8%. Further, the inhibition in series [27] is -7.27%; in series [28] it was 17%; in series [29] it was -3%; in [30], -4%; in series [31], -1%; in series [32], 3%. Further, the inhibition in series [33] is 2%; in [34], 4%. Moreover, the inhibition at 60 min, 10 µM in series [9] is on record as 42% (not active).

These data come from ChEMBL document CHEMBL4507293 (2021).
